Experimental data from patent publication US5574059A, “Treating disorders mediated by vascular smooth muscle cell proliferation” (priority 1995, dated 1996).
“Also recorded” adds a separate entry of the source.

Key:
[1] = tested on: rat aortic smooth muscle cells; assay: serum-stimulated proliferation, 3H-thymidine incorporation into DNA; type: cell-based; settings: 10% fetal calf serum stimulated; for 3H-thymidine incorporated (IC50), N symbol / IC50: 24 h; for IC50: Rattus norvegicus, read-out: 3H-thymidine incorporated (IC50)
Experimental: (§1) Inhibition of serum-stimulated proliferation of rat aortic smooth muscle cells is determined as follows: The antiproliferative effect of potential drug is determined by measuring the incorporation of ^3 H-thymidine into cellular DNA. Exposure of quiescent vascular smooth muscle cell to serum, which contains many growth factors, results in a large increase in cellular proliferation as measured by ^3 H-thymidine incorported into DNA. The inhibitory effect of potential drug on serum-stimulated proliferation is tested by adding a drug before the addition of serum and determining if the serum-stimulated proliferation is reduced. […] In that event, antagonizing of the antiproliferative effect of idazoxan is determined by adding antagonist before the addition of idazoxan to serum-stimulated vascular smooth muscle cells.
In this experiment, the proliferation of vascular smooth muscle cells was determined by measuring DNA replication. The incorporation of ^3 H-thymidine into DNA was used to measure the replication of DNA as described in Erlinge, D., et al, Am. J. Physiol. 265, H1089-H1097 (1993) which is incorporated herein by reference.
(§2) Rat aortic smooth muscle cells prepared as described in In Vitro Example 1 were plated into 24-well plates at a density of about 30,000 cells/well in 10% fetal calf serum (FCS). After 48 hours, the cells were starved in 0.5% FCS for another 48 hours to decrease proliferation and induce quiescence. The medium was replaced by serum-free medium 24 hours prior to addition of drug (drugs are described below) and 10% fetal calf serum or only 10% fetal calf serum in the case of the control. The cells were then incubated for 24 hours and ^3 H-thymidine (1 μCi/well) was added at hour 20. At the end of the 24 hour period, the medium was aspirated and the cells were washed three times with phosphate-buffered saline and twice with ice-cold trichloroacetic acid. Fixed cells were then solubilized in 0.2M NaOH and sonicated. A 100 μl aliquot was used for scintillation counting.

I2 imidazoline receptors [2] = assay: inhibition of 3H-idazoxan (5 nM) binding to rat aortic smooth muscle cell membranes; settings: for Ki: Table 2, rat aortic smooth muscle cell membranes, read-out: Ki; for Ki / inhibition of 3H-idazoxan binding, in words: 3H-idazoxan 5 nM
Experimental: (§3) Binding to I2 imidazoline receptors is determined by the following assay. Membranes are prepared from cultured cells for ligand binding as described in Regunathan, S., et al, Biochem. Pharmacol. 45, 1667-1675 (1993) and Regunathan, S., et al, J. Neurosci. Res. 34, 681-688 (1993) and the disclosure in these on this is incorporated herein by reference. In particular, harvested rat aortic smooth muscle cells are homogenized in Hepes-sucrose buffer (pH 7.4) with a Teflon-glass homogenizer and centrifuged at 1000 × g for 10 minutes. The pellets are suspended in ice-cold Tris-HCl buffer (pH 7.7) with 5mM ethylene diamine tetracetic acid and homogenized using a Polytron (Brinkman Instruments) for 10 seconds. The homogenate is centrifuged at 40,000 × g for 30 minutes to produce a membrane pellet. The membrane pellet is washed three times by resuspending in buffer and re-centrifuging. The washed pellet is suspended in fresh Tris-HCl buffer (pH 7.4) to provide approximately 100 μg protein per assay tube. Binding assays are performed in Tris-HCl buffer (pH 7.7) using 5 nM of […]. Non-specific binding is defined by 100 μM of unlabelled idazoxan which will inhibit the specific binding of ^3 H-idazoxan. Thus the binding remaining in the presence 100 μM of idazoxan is due to non-specific binding and this will be substracted from total binding to calculate the specific binding. Following incubation at 25° C. for 30 minutes, reaction is terminated by rapid vacuum filtration over Whatman GF/B filters and washed with 10 ml of ice-cold buffer. Filters are suspended in scintillation fluid and radioactivity counted in a liquid scintillation counter. Membrane protein is assayed by Coomassie Blue method (Pierce) using bovine serum albumin as standard.
Determination of inhibition constant (Ki) for each drug is determined as follows: The binding of ^3 H-idazoxan to membranes of vascular smooth muscle cells is determined in the presence of 0.1 nM to 100 μM concentrations of potential drug. The percent inhibition of specific binding of ^3 H-idazoxan by each concentration is calculated and plotted against concentration. The data is analyzed by non-linear curve fitting program, LIGAND and the IC50 value for each potential drug is calculated. The affinity for each drug (Ki) for I2 imidazoline receptors is calculated using the formula Ki =IC50 /1+L/Kd where L is the concentration of ^3 H-idazoxan used for binding and Kd is the dissociation constant for ^3 H-idazoxan for I2 imidazoline receptors. The dissociation constant (Kd) is determined by Scatchard analysis of the saturation binding of ^3 H-idazoxan using the formula [formula] where B and F are the amount of bound and free ligand, respectively, and Bmax is the number of binding sites.
(§4) Primary cultures of rat-aortic smooth muscle cells were prepared by a modification (described in Erlinge, Do, et al, Am. J. Physiol. 265, H1089-1097, 1993) of the method of Meyer-Lehnert and Schrier (Meyer-Lehnert, H., et al, Hypertension 13,350-361, 1989), the disclosure of these cited articles being incorporated herein by reference. Briefly, rats were killed by anesthetic overdose and the aorta were removed and incubated with collagenase (2 mg/ml) in Dulbecco's modified Eagle's minimum essential medium (DMEM). The vessel was stripped of adventitia, cut longitudinally and the intima scraped away. After further collagenase treatment, the remaining tissue was passed 20 times through 18 and 16 gauge needles. The resulting cell suspension was centrifuged at 500 × g for 5 minutes and resuspended in DMEM containing penicillin (100 units/ml), streptomycin (100 μg/ml), 2 mM L-glutamine and 10% fetal calf serum. The suspended cells were plated in T-75 flasks, cultured until confluent, and subcultured in 100 mm plates. The confluent cells were harvested and membranes were prepared. Cell viability was determined by trypan blue exclusion.

[3] = tested on: rat aortic smooth muscle cells; assay: antagonism of the antiproliferative effect in serum-stimulated smooth muscle cells; type: cell-based
Experimental: as §1
as §2, with “After” for “Rat aortic smooth muscle cells prepared as described in In Vitro Example 1 were plated into 24-well plates at a density of about 30,000 cells/well in 10% fetal calf serum (FCS). After”
To test this, the effect of tolazoline (100 μM) on the concentration/response curve was determined.

α2 -adrenergic receptors = assay: specific binding of 3H-PAC and 3H-rauwolscine to smooth muscle cell membranes; set-up: species or system rat; settings: for specific binding of 3H-PAC / 3H-rauwolscine: 5 nM ligand, non-specific binding defined by 100 μM cold ligand; for binding selectivity of radioligand, in words (α2-adrenergic receptors): with epinephrine competition
Experimental: as §4, with “exclusion. Smooth muscle cells were phenotypically defined by immunostaining with anti-smooth muscle actin (Sigma). The cultured cells were usually used for only about 10 passages after which they were replaced by freshly prepared cells.” for “exclusion.”
Membranes were prepared from the cultured cells as described in Regunathan et al, Biochem. Pharmacol. 45, 1667-1675 (1993). Membranes were incubated with 5 nM of ^3 H-idazoxan, ^3 H-PAC or ^3 H-rauwolscine with non-specific binding defined by 100 μM cold ligand as described above.

I2 imidazoline receptors [4] = assay: saturation/specific binding of 3H-idazoxan to smooth muscle cell membranes (Scatchard analysis); set-up: species or system rat
Experimental: as §3, with “Membrane protein is assayed by Coomassie Blue method (Pierce) using bovine serum albumin as standard.” left out
Primary cultures of rat-aortic smooth muscle cells were prepared by a modification (described in Erlinge, Do, et al, Am. J. Physiol. 265, H1089-1097, 1993) of the method of Meyer-Lehnert and Schrier (Meyer-Lehnert, H., et al, Hypertension 13,350-361, 1989), the disclosure of these cited articles being incorporated herein by reference. […] Cell viability was determined by trypan blue exclusion.

Row | Structure (SMILES) | 3H-thymidine incorporated (IC50), N symbol [1] | Ki (I2 imidazoline receptors [2]) | inhibition of vascular smooth muscle cell proliferation, in words [1] | inhibition of 3H-idazoxan binding, in words (I2 imidazoline receptors [2]) | also measured
1 | Cc1ccc(N(CC2=NCCN2)c2cccc(O)c2)cc1 [Phentolamine] | N | 10.5 ± 1.4 µM |  |  | 
2 | c1ccc(CC2=NCCN2)cc1 [Tolazoline] | N | 0.256 ± 0.023 µM | without any effect; also recorded: failed to inhibit cellular proliferation | binding with high affinity | effect on the concentration/response curve for idazoxan ([3]; tolazoline 100 μM): markedly shifted the concentration/response curve for idazoxan to the right
3 | COc1nc(C)nc(Cl)c1N=C1NCCN1 [Moxonidine] | N | 55 ± 4 µM | had no effect | low | 
4 | COC(=O)C1C(O)CCC2CN3CCc4c([nH]c5ccccc45)C3CC21 (stereo not drawn) [^3 H-rauwolscine] |  |  |  |  | specific binding of 3H-PAC / 3H-rauwolscine (α2 -adrenergic receptors): greater than 70%; binding selectivity of radioligand, in words (α2-adrenergic receptors) (α2 -adrenergic receptors): primarily bind to α2 -adrenergic receptors
5 | C1COC(NC(C2CC2)C2CC2)=N1 [Rilmenidine] | N | 85 ± 9 µM | had no effect | low | 
6 | c1ccc(C2CC2)c(OCC2=NCCN2)c1 [Cirazoline, cyclopropyl phenoxy imidazoline] |  |  |  |  | IC50 [1]: 286 ± 19 µM
7 | N=C(N)NC(=O)c1nc(Cl)c(N)nc1N [Amiloride] |  | 75 ± 9.6 µM |  | low | 
8 | c1ccc2c(CC3=NCCN3)cccc2c1 [Naphazoline, 2-(1-naphthylmethyl) imidazoline] |  |  |  |  | IC50 [1]: 52.3 ± 5.6 µM
9 | CNC[C@H](O)c1ccc(O)c(O)c1 [Epinephrine] |  |  |  |  | inhibition of specific binding of 3H-PAC (α2 -adrenergic receptors; epinephrine 10 μM): completely inhibited; inhibition of specific binding of 3H-rauwolscine (α2 -adrenergic receptors; epinephrine 10 μM): completely inhibited; reduction of 3H-idazoxan binding (I2 imidazoline receptors [2]; even at 100 μM epinephrine, failed to reduce by greater than): ≤ 10%
10 | COC(=O)[C@H]1[C@H]2C[C@H]3c4[nH]c5ccccc5c4CCN3C[C@H]2CC[C@@H]1O [Rauwolscine] | N | > 100 µM | had no effect | without effect | effect of rauwolscine on the anti-proliferative response [3]: blocked
11 | Nc1cc(Cl)c(NC2=NCCN2)c(Cl)c1 [^3 H-PAC] |  |  |  |  | specific binding of 3H-PAC / 3H-rauwolscine (α2 -adrenergic receptors): greater than 70%; binding selectivity of radioligand, in words (α2-adrenergic receptors) (α2 -adrenergic receptors): primarily bind to α2 -adrenergic receptors
12 | Clc1cccc(Cl)c1N=C1NCCN1 [Clonidine] | N | 2.5 ± 0.65 µM | had no effect |  | 
13 | c1ccc2c(c1)OCC(C1=NCCN1)O2 (stereo not drawn) [^3 H-idazoxan] |  |  |  |  | specific binding of 3H-idazoxan (I2 imidazoline receptors [4]; 5 nM ligand, non-specific binding defined by 100 μM cold ligand): greater than 70%; Kd (I2 imidazoline receptors [4]; Scatchard analysis, single-site fit, in presence of 10 μM epinephrine): 8.9 ± 1.2 nM; binding selectivity of radioligand, in words (non-adrenergic sites) (I2 imidazoline receptors [4]; with epinephrine competition): binds almost exclusively to non-adrenergic sites
14 | N=C(N)N/N=C/c1c(Cl)cccc1Cl [Guanabenz] |  | 51 ± 6.5 µM |  | low | 
